For 21 molecules, mortality and pest or weed control results are on record in patent US20110224079A1, “SPIROHETEROCYCLIC N-OXYAMIDES AS PESTICIDES” (SYNGENTA CROP PROTECTION LLC, priority 2008, published 2011).

Test [1] has as its system Myzus persicae (green peach aphid). As to the kind of experiment: Example B13: drench activity against Myzus persicae, pea seedlings in field soil. Particulars: 168 h, read-out: drench activity (mortality).
Test [2] concerns Aphis Craccivora (cowpea aphid). Briefly: Example B11: translaminar activity against Aphis craccivora on French bean leaves. Format: in vivo. Particulars: 120 h, upper leaf side painted, aphids on lower side, 5 days. As for the experimental part:
Translaminar Activity Against Aphis Craccivora (Cowpea Aphid)
French bean leaves (Phaseolus vulgaris) are infested with about 20 mixed age individuals on the lower leaf side using clip cages. 1 day after the infestation, the upper side of the leaves is treated with the test solution by painting. 5 days later, samples are checked for mortality.

Test [3] deals with Myzus persicae (green peach aphid). Briefly: Example B2: activity against Myzus persicae, pea seedling roots in test solution (systemic/feeding, curative). Particulars: 144 h, read-out: activity (mortality).
The test system of test [4] is Aphis Craccivora (cowpea aphid). As to the kind of experiment: Example B9: activity against Aphis craccivora, sprayed pea seedlings (contact/feeding). Format: in vivo. Particulars: 144 h, infested pea seedlings sprayed, 6 days. The source says: (§1) Activity Against Aphis Craccivora (Cowpea Aphid)
(Mixed Population, Contact/Feeding)
6 days after treatment, samples are checked for mortality.

Test [5] shares this test system. Briefly: Example B10: activity against Aphis craccivora, pea seedling roots in test solution (systemic/feeding). Format: in vivo. Particulars: 144 h, roots of infested pea seedlings in test solution, 6 days.
Source text: as §1
(Mixed Population, Systemic/Feeding)

Test [6] relates to Myzus persicae (green peach aphid). As to the kind of experiment: Example B17: activity against Myzus persicae on sprayed pepper plants (feeding/residual contact). Format: in vivo. Particulars: 144 h, infested pepper plants sprayed, 6 days.
Test [7] has as its system Nilaparvata lugens (brown rice planthopper). As to the kind of experiment: Example B8: activity against Nilaparvata lugens, sprayed rice seedlings (larvicide, feeding/contact). Particulars: in Oryza sativa, read-out: activity (mortality, growth regulation, effects on F1 generation).
Test [8] relates to Myzus persicae (green peach aphid). As to the kind of experiment: Example B1: activity against Myzus persicae, sprayed sunflower leaf discs (feeding/residual contact, preventive). Particulars: foliar, 144 h, read-out: activity (mortality).
Test [9] deals with Frankliniella occidentalis (western flower thrips). Briefly: Example B6: activity against Frankliniella occidentalis, bean leaf discs or bean plants. Type of test: in vivo. Particulars: foliar, 6 days (leaf discs) or 14 days (plants) after infestation, read-out: activity (reduction of treated population). As for the experimental part: Activity Against Frankliniella occidentalis (Western Flower Thrips)
Bean leaf discs on agar in petri dishes or bean plants in a spray chamber are treated with diluted test solutions. After drying leaf discs are cut and placed in plastic cups on the surface of an agar layer and infested with mixed population. 6 days (leaf discs) or 14 days (plants) after the infestation, samples are checked for reduction of treated population and compared to the non treated population.

In test [10] the test system is Tetranychus urticae (two-spotted spider mite). As to the kind of experiment: Example B4: activity against Tetranychus urticae, sprayed bean leaf discs (feeding/residual contact, preventive). Particulars: foliar, 192 h, read-out: activity (egg, larval and adult mortality).
For test [11], the system named is Bemisia tabaci (tobacco white fly). Briefly: Example B7: activity against Bemisia tabaci, sprayed bean plants (larvicide, contact/feeding). Type of test: in vivo. Particulars: 504 h, bean plants with N-2 nymphs sprayed, three weeks, read-out: activity (efficacy, number of emerged adults). The method, then:
Activity Against Bemisia tabaci (Tobacco White Fly)
(Larvicide, Contact/Feeding)
Bean plants are infested with 20-30 adults that were removed after a 4 day egg-laying period. After another 7 days, bean plants with hatched nymphs (N-2) are treated (2 replicates) with the test solutions in a spray chamber. Three weeks later, samples are checked for number of emerged adults. Efficacy was calculated by comparing number of emerged adults in treated and non treated samples.

Test [12] relates to Thrips tabaci (onion thrips). Briefly: Example B3: activity against Thrips tabaci, sprayed sunflower leaf discs (feeding/residual contact, preventive). Format: in vivo. Particulars: foliar, 144 h, mixed population, 6 days. The text has this:
Activity Against Thrips tabaci (Onion Thrips)
(Mixed Population, Feeding/Residual Contact Activity, Preventive)

Consider `CCOC(=O)OC1=C(c2cc(C)ccc2C)C(=O)N(OC)C12CCN(OC)CC2` [P1.1], for which the mortality at 25 ppm in [1] was above 80%. Further, the mortality at 400 ppm in test [2], in test [3], in test [4], in test [5], in test [7] and in test [8] was above 80% throughout. In [6], this molecule gave a mortality at 200 ppm of at least 80%.
Consider `CCOC(=O)OC1=C(c2cc(C)ccc2C)C(=O)N(OCCOC)C12CCN(OC)CC2` [P1.3], for which, in test [1], the mortality at 25 ppm is above 80%. Besides, the mortality at 400 ppm in test [2], in test [3], in test [4], in test [5], in test [7] and in [8] was above 80% throughout. Also, in [6], the mortality at 200 ppm was at least 80%.
Take `CCOC(=O)OC1=C(c2c(C)cc(C)cc2C)C(=O)N(OC2CCCCO2)C12CCN(OC)CC2` (centres unmarked) [P1.10]: the mortality at 25 ppm in test [1] is above 80%. The pest or weed control at 400 ppm in [9] is above 80%. The mortality at 400 ppm in [2], in [3], in test [5], in test [10], in test [7] and in test [8] was above 80% throughout. This molecule returned a mortality at 200 ppm in test [6] of at least 80%. For the same molecule, the pest or weed control at 200 ppm in [11] was above 80%.
Consider `CCOC(=O)OC1=C(c2cc(C)ccc2C)C(=O)N(O)C12CCN(OC)CC2` [P1.12], for which the mortality at 400 ppm in [3], in test [7], in test [12] and in test [8] was above 80% throughout.
Regarding `CCOC(=O)OC1=C(c2c(C)cc(C)cc2C)C(=O)N(OC(C)C)C12CCN(OC)CC2` [P1.14], the pest or weed control at 400 ppm in test [9] is above 80%. The mortality at 400 ppm in test [2] and in test [3] was above 80% in each case. In addition, in test [6], the mortality at 200 ppm is at least 80%.
`CCOC(=O)OC1=C(c2c(C)cc(C)cc2C)C(=O)N(OCC2CC2)C12CCN(OC)CC2` [P1.18]: the mortality at 25 ppm in test [1] is above 80%. Besides, the pest or weed control at 400 ppm in [9] was above 80%. The mortality at 400 ppm in test [2], in test [3], in test [10], in test [7] and in test [8] was above 80% in each case. The molecule also showed a mortality at 200 ppm in test [6] of at least 80%. The pest or weed control at 200 ppm in [11] was above 80%.
For the molecule `CCOC(=O)OC1=C(c2c(C)cc(C)cc2C)C(=O)N(OC2CCC2)C12CCN(OC)CC2` [P1.45], the pest or weed control at 400 ppm in test [9] was above 80%. The mortality at 400 ppm in test [2], in [3], in test [10], in test [7] and in test [8] was above 80% throughout. In [6], this molecule gave a mortality at 200 ppm of at least 80%.
As for `CCOC(=O)OC1=C(c2ccc(C)cc2C)C(=O)N(OC2CCCO2)C12CCN(OC)CC2` (centres unmarked) [P1.47], the mortality at 400 ppm in test [3], in test [10], in test [12] and in [8] was above 80% in each case.
For `CCOCON1C(=O)C(c2ccc(C)cc2C)=C(OC(=O)OCC)C12CCN(OC)CC2` [P1.49], in [1], the mortality at 25 ppm was above 80%. Also, the mortality at 400 ppm in test [2], in [3], in test [10], in [7], in [12] and in test [8] was above 80% each time.
On to `CCOC(=O)OC1=C(c2c(C)cc(C)cc2C)C(=O)N(OCc2ccco2)C12CCN(OC)CC2` [P1.81], for which the mortality at 400 ppm in test [3], in test [10], in test [12] and in [8] was above 80% in each case. Moreover, the mortality at 200 ppm in [6] was at least 80%.
`CCOCON1C(=O)C(c2c(C)cc(C)cc2C)=C(O)C12CCN(OC)CC2` [P2.10]: in [9], the pest or weed control at 400 ppm is above 80%. Further, the mortality at 400 ppm in test [2], in test [3], in test [5], in test [7], in test [12] and in test [8] was above 80% each time. In test [6], this molecule registered a mortality at 200 ppm of at least 80%.
`CON1CCC2(CC1)C(O)=C(c1c(C)cc(C)cc1C)C(=O)N2OC(C)C` [P2.11]: the mortality at 25 ppm in test [1] is above 80%. For the same molecule, the pest or weed control at 400 ppm in [9] was above 80%. Besides, the mortality at 400 ppm in test [3] and in test [10] was above 80% in each case. In test [6], this molecule came in with a mortality at 200 ppm of at least 80%.
`C=CCON1C(=O)C(c2c(C)cc(C)cc2C)=C(O)C12CCN(OC)CC2` [P2.12]: in test [1], the mortality at 25 ppm is above 80%. For the same molecule, the pest or weed control at 400 ppm in [9] was above 80%. The mortality at 400 ppm in test [2], in test [3], in test [10] and in test [8] was above 80% each time. The molecule further registered a mortality at 200 ppm in test [6] of at least 80%. In addition, in [11], the pest or weed control at 200 ppm was above 80%.
For the molecule `CON1CCC2(CC1)C(O)=C(c1c(C)cc(C)cc1C)C(=O)N2OC1CCC1` [P2.30], the mortality at 25 ppm in test [1] was above 80%. Besides, in [9], the pest or weed control at 400 ppm was above 80%. For the same molecule, the mortality at 400 ppm in test [2], in test [3], in test [10] and in [8] was above 80% in each case. Moreover, the mortality at 200 ppm in test [6] is at least 80%.
Regarding `COCON1C(=O)C(c2c(C)ccc(C)c2C)=C(O)C12CCN(OC)CC2` [P2.54], in [1], the mortality at 25 ppm was above 80%. Further, the pest or weed control at 400 ppm in [9] was above 80%. Also, the mortality at 400 ppm in test [2], in [3], in [5] and in [8] was above 80% throughout. This molecule also yielded a mortality at 200 ppm in [6] of at least 80%.
For the molecule `CON1CCC2(CC1)C(O)=C(c1c(C)cc(C)cc1Cl)C(=O)N2OC` [P2.55], the mortality at 25 ppm in test [1] was above 80%. Besides, the pest or weed control at 400 ppm in [9] is above 80%. Also, the mortality at 400 ppm in [2], in [3], in [5], in [10], in [7] and in test [8] was above 80% throughout.
`CON1CCC2(CC1)C(O)=C(c1c(C)cc(C)cc1Br)C(=O)N2OC` [P2.56]: the mortality at 25 ppm in test [1] was above 80%. The pest or weed control at 400 ppm in [9] was above 80%. In addition, the mortality at 400 ppm in test [2], in test [3], in [5], in test [10] and in test [8] was above 80% in each case.
On to `CON1CCC2(CC1)C(O)=C(c1c(C)cc(Br)cc1C)C(=O)N2OC1CCCO1` (centres unmarked) [P2.62], for which the mortality at 400 ppm in test [3] and in test [12] was above 80% throughout. In addition, the mortality at 200 ppm in test [6] is at least 80%.
With `CON1CCC2(CC1)C(O)=C(c1c(C)cc(C)cc1C)C(=O)N2OCC1CCOC1` (centres unmarked) [P2.67], the mortality at 400 ppm in test [3], in test [10], in [12] and in test [8] was above 80% each time. In [6], this molecule returned a mortality at 200 ppm of at least 80%.
Turning to `COCCON1C(=O)C(c2c(C)cccc2C)=C(O)C12CCN(OC)CC2` [P2.77], the mortality at 400 ppm in test [3], in test [12] and in [8] was above 80% each time. The mortality at 200 ppm in test [6] is at least 80%.
For the molecule `CON1CCC2(CC1)C(O)=C(c1c(C)cc(C)cc1C)C(=O)N2OCC1CCOCC1` [P2.84], the mortality at 400 ppm in test [3], in test [12] and in [8] was above 80% each time.
